Assay results from ChEMBL document CHEMBL5360570, “Discovery of pyrazolo[3,4-b]pyridine derivatives as novel and potent Mps1 inhibitors for the treatment of cancer” (Eur J Med Chem, 2023).

Legend:
[1] = target: Mitogen-activated protein kinase kinase kinase 9 (Homo sapiens) (UniProt P80192); assay: Inhibition of MLK1 (unknown origin) assessed as residual activity at 1 uM relative to control
[2] = Metabolic stability in human liver microsome assessed as half life preincubated for 10 mins followed by NADPH addition and measured upto 60 mins by LC-MS/MS analysis; assay type: ADME; settings: liver microsomes, time < 70 min
[3] = C0 in Sprague-Dawley rat at 2 mg/kg, iv measured upto 24 hrs by LC-MS/MS analysis; assay type: ADME, organism-based; settings: in vivo
[4] = Metabolic stability in human liver microsome assessed as parent compound remaining preincubated for 10 mins followed by NADPH addition and measured immediately by LC-MS/MS analysis; assay type: ADME; settings: liver microsomes, read-out: Stability
MV4-11 = assay: Antiproliferative activity against human MV4-11 cells assessed inhibition of cell growth incubated for 72 hrs by CCK-8 assay; assay type: functional, cell-based; settings: MV4-11, 72 h
[5] = tested on: EML4-ALK (Homo sapiens), Q9UM73+Q9HC35 [F1174L]; assay: Inhibition of ALK F1174L mutant (unknown origin)/EML4 (unknown origin) assessed as residual activity at 1 uM relative to control; assay type: protein assay
[6] = AUC (0 to infinity) in Sprague-Dawley rat at 10 mg/kg, po measured upto 24 hrs by LC-MS/MS analysis; assay type: ADME, organism-based; parameters: dose 10 mg/kg, time < 24 hrs, route po; settings: in vivo
[7] = tested on: ALK tyrosine kinase receptor (Homo sapiens), Q9UM73 [F1174L]; assay: Inhibition of ALK F1174L mutant (unknown origin) assessed as residual activity at 1 uM relative to control
ALK-KLC1 (Homo sapiens) = ALK-KLC1 (Homo sapiens) (UniProt Q9UM73+Q07866); assay: Inhibition of ALK-KLC1 (unknown origin) assessed as residual activity at 1 uM relative to control; assay type: protein assay
[8] = tested on: ALK tyrosine kinase receptor (Homo sapiens), Q9UM73 [UNDEFINED MUTATION]; assay: Inhibition of ALK T1151/L1152 mutant (unknown origin) assessed as residual activity at 1 uM relative to control
[9] = Toxicity in BALB/c nude mouse xenografted with human MDA-MB-468 cells assessed as change in body weight at 30 mg/kg, iv administered once daily for 21 days […]; assay type: organism-based; settings: in vivo, 504 h, time 21 day
[10] = target: Activated CDC42 kinase 1 (Homo sapiens) (UniProt Q07912); assay: Inhibition of ACK1 (unknown origin) assessed as residual activity at 1 uM relative to control
[11] = target: Epithelial discoidin domain-containing receptor 1 (Homo sapiens) (UniProt Q08345); assay: Inhibition of DDR1 (unknown origin) assessed as residual activity at 1 uM relative to control
[12] = target: LIM domain kinase 1 (Homo sapiens) (UniProt P53667); assay: Inhibition of LIMK1 (unknown origin) assessed as residual activity at 1 uM relative to control
[13] = MRT (0 to t) in Sprague-Dawley rat at 10 mg/kg, po measured upto 24 hrs by LC-MS/MS analysis; assay type: ADME, organism-based; settings: in vivo
[14] = tested on: ALK tyrosine kinase receptor (Homo sapiens), Q9UM73 [G1269S]; assay: Inhibition of ALK G1269S mutant (unknown origin) assessed as residual activity at 1 uM relative to control
[15] = target: Leukocyte tyrosine kinase receptor (Homo sapiens) (UniProt P29376); assay: Inhibition of TYK1 (unknown origin) assessed as residual activity at 1 uM relative to control
[16] = target: Tyrosine-protein kinase Fer (Homo sapiens) (UniProt P16591); assay: Inhibition of FER (unknown origin) assessed as residual activity at 1 uM relative to control
[17] = target: Serine/threonine-protein kinase SIK2 (Homo sapiens) (UniProt Q9H0K1); assay: Inhibition of SIK2 (unknown origin) assessed as residual activity at 1 uM relative to control
[18] = target: NPM/ALK (Nucleophosmin/ALK tyrosine kinase receptor) (Homo sapiens) (UniProt Q9UM73+P06748); assay: Inhibition of ALK-NPM1 (unknown origin) assessed as residual activity at 1 uM relative to control; assay type: protein assay
[19] = tested on: ALK tyrosine kinase receptor (Homo sapiens), Q9UM73 [G1269A]; assay: Inhibition of ALK G1269A mutant (unknown origin) assessed as residual activity at 1 uM relative to control
[20] = Clearance in Sprague-Dawley rat at 2 mg/kg, iv measured upto 24 hrs by LC-MS/MS analysis; assay type: ADME, organism-based; settings: in vivo
[21] = tested on: NPM/ALK (Nucleophosmin/ALK tyrosine kinase receptor) (Homo sapiens), Q9UM73+P06748 [F1174L]; assay: Inhibition of ALK F1174L mutant (unknown origin)/NPM1 (unknown origin) assessed as residual activity at 1 uM relative to control; assay type: protein assay
MDA-MB-468 = assay: cells; assay type: functional, cell-based; settings: Homo sapiens, MDA-MB-468, 72 h
Description: Antiproliferative activity against human MDA-MB-468 cells assessed inhibition of cell growth incubated for 72 hrs by CCK-8 assay

[22] = Cmax in Sprague-Dawley rat at 10 mg/kg, po measured upto 24 hrs by LC-MS/MS analysis; assay type: ADME, organism-based; parameters: time < 24 hrs, dose 10 mg/kg, route po; settings: in vivo
[23] = target: MAP/microtubule affinity-regulating kinase 4 (Homo sapiens) (UniProt Q96L34); assay: Inhibition of MARK4 (unknown origin) assessed as residual activity at 1 uM relative to control
ROS1-GOPC (Homo sapiens) = ROS1-GOPC (Homo sapiens) (UniProt P08922+Q9HD26); assay: Inhibition of ROS1-GOPC (unknown origin) assessed as residual activity at 1 uM relative to control; assay type: protein assay
[24] = target: Serine/threonine-protein kinase SIK1 (Homo sapiens) (UniProt P57059); assay: Inhibition of SIK1 (unknown origin) assessed as residual activity at 1 uM relative to control
[25] = Volume of distribution at steady state in Sprague-Dawley rat at 2 mg/kg, iv measured upto 24 hrs by LC-MS/MS analysis; assay type: ADME, organism-based; settings: in vivo, read-out: Vdss
[26] = Half life in Sprague-Dawley rat at 2 mg/kg, iv measured upto 24 hrs by LC-MS/MS analysis; assay type: ADME, organism-based; settings: in vivo
[27] = tested on: Fibroblast growth factor receptor 2 (Homo sapiens), P21802 [V564F]; assay: Inhibition of FGFR2 V564F mutant (unknown origin) assessed as residual activity at 1 uM relative to control
[28] = Tmax in Sprague-Dawley rat at 10 mg/kg, po measured upto 24 hrs by LC-MS/MS analysis; assay type: ADME, organism-based; settings: in vivo
[29] = tested on: ALK tyrosine kinase receptor (Homo sapiens), Q9UM73 [F1174S]; assay: Inhibition of ALK F1174S mutant (unknown origin) assessed as residual activity at 1 uM relative to control
[30] = MRT (0 to infinity) in Sprague-Dawley rat at 2 mg/kg, iv measured upto 24 hrs by LC-MS/MS analysis; assay type: ADME, organism-based; settings: in vivo
[31] = Metabolic stability in human liver microsome assessed as parent compound remaining preincubated for 10 mins followed by NADPH addition and measured at 30 mins by LC-MS/MS analysis; assay type: ADME; settings: liver microsomes, time 40 min, read-out: Stability
[32] = Tmax in Sprague-Dawley rat at 2 mg/kg, iv measured upto 24 hrs by LC-MS/MS analysis; assay type: ADME, organism-based; settings: in vivo

Sequence of Tyrosine-protein kinase Fer (Homo sapiens) (P16591 whole entry, looked up): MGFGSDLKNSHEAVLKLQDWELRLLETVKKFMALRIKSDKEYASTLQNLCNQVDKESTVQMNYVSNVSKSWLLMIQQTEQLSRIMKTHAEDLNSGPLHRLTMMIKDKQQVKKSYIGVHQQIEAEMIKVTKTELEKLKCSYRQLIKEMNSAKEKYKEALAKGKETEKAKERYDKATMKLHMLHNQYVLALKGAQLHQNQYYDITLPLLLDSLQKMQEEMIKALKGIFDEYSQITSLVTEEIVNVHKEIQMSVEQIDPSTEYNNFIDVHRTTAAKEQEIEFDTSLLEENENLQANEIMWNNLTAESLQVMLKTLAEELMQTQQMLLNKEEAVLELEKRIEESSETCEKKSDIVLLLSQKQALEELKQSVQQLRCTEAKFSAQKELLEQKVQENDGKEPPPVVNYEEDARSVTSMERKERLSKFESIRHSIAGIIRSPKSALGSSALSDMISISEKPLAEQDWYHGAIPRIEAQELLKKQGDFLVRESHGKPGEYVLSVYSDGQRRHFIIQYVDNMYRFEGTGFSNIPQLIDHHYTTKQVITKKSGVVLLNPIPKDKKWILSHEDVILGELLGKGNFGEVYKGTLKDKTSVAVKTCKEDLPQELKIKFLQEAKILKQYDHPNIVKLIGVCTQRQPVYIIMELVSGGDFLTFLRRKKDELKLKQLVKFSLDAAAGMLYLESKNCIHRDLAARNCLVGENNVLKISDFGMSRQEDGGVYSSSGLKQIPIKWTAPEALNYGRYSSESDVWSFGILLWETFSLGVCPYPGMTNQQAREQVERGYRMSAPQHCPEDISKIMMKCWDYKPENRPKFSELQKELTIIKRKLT
Sequence of Leukocyte tyrosine kinase receptor (Homo sapiens) (P29376 whole entry): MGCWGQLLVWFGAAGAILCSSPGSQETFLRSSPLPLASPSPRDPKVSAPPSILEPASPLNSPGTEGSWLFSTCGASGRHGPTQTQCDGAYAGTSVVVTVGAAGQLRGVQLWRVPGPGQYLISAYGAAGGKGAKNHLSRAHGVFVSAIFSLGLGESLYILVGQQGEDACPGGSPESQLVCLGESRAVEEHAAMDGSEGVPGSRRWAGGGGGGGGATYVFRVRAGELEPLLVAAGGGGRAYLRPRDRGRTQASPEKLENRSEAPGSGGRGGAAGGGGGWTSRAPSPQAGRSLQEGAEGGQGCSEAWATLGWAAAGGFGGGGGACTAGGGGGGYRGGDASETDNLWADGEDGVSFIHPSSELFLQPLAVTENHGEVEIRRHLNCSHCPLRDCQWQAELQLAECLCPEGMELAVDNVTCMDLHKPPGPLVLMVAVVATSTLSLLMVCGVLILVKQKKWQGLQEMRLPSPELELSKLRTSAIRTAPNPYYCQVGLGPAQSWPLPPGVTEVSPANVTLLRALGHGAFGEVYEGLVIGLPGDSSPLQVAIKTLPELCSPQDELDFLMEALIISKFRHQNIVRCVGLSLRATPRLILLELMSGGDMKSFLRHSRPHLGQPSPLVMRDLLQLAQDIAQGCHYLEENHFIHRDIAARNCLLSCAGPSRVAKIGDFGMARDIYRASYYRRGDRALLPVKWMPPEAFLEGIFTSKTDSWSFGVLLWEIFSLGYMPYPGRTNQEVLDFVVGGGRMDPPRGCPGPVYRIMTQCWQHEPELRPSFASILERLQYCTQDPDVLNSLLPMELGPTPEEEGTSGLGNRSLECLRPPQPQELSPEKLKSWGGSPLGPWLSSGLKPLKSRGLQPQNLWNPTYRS
Sequence of Epithelial discoidin domain-containing receptor 1 (Homo sapiens) (Q08345 whole entry, the tested form may be a part): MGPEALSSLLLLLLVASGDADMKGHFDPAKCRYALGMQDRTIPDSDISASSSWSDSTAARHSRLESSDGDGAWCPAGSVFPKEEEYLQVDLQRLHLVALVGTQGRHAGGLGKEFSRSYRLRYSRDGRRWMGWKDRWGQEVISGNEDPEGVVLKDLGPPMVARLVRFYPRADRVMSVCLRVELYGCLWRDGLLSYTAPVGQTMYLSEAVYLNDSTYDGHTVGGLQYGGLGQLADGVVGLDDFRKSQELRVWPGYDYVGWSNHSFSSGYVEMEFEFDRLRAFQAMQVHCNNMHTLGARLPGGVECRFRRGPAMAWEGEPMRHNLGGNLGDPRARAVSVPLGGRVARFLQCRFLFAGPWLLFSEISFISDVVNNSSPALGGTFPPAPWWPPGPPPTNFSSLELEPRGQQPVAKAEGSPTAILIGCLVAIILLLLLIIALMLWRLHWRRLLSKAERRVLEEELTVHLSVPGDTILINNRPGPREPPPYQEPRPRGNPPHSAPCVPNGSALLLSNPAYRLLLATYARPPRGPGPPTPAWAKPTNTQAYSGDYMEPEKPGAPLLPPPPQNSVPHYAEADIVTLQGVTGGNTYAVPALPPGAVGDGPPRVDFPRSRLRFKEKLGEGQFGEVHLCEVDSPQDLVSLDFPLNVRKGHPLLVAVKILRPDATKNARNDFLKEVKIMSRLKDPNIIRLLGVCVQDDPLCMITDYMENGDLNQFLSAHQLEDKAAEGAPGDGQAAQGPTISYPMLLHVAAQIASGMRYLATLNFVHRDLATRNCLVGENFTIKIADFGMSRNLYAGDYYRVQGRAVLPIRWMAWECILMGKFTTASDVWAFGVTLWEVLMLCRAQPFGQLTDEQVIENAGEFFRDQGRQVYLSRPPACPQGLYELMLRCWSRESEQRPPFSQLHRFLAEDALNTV
Sequence of ALK tyrosine kinase receptor (Homo sapiens), Q9UM73 [UNDEFINED MUTATION] (Q9UM73 whole entry, looked up, change not shown): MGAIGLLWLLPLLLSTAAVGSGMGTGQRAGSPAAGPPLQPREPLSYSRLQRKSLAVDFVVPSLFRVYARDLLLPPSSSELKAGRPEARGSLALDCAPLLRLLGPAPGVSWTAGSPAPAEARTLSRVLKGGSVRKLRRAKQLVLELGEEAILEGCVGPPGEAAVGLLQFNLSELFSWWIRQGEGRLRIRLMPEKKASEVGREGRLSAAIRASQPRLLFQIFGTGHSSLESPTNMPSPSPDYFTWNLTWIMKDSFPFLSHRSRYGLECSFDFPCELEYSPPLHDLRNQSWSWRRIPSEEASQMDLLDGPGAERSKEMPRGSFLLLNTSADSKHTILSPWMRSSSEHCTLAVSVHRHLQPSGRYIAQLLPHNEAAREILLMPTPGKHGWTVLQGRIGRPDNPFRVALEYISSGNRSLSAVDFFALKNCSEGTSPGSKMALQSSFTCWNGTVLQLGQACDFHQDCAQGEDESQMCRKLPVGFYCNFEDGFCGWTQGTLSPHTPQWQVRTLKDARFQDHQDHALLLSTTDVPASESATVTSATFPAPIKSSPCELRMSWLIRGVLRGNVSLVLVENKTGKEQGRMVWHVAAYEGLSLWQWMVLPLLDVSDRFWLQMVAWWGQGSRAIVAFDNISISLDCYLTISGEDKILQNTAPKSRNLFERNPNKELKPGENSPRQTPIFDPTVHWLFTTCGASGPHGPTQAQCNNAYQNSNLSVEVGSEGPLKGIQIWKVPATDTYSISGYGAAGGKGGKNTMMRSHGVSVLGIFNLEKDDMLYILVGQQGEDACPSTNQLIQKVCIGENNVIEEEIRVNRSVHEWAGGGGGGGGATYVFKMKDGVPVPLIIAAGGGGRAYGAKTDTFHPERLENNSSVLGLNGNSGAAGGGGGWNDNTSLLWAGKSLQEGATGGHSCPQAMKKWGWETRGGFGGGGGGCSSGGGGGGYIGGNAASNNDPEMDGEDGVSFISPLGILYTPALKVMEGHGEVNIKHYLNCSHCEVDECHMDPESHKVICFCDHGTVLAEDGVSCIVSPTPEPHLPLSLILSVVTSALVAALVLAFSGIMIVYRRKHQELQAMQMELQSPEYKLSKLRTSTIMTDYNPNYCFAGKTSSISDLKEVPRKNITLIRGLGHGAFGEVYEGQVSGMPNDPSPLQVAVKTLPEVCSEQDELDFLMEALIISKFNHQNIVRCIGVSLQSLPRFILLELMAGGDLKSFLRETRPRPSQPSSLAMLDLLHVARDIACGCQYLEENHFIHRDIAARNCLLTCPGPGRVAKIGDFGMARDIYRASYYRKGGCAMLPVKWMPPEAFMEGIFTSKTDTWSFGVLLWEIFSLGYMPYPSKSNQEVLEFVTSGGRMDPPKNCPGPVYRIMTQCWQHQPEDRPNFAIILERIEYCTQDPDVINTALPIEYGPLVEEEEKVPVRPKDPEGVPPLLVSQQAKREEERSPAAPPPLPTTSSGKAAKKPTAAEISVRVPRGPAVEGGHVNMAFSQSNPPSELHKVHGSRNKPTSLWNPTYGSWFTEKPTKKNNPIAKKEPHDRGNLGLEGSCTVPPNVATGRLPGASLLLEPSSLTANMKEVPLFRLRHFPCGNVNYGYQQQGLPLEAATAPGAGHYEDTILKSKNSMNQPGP
Sequence of Serine/threonine-protein kinase SIK1 (Homo sapiens) (P57059 whole entry): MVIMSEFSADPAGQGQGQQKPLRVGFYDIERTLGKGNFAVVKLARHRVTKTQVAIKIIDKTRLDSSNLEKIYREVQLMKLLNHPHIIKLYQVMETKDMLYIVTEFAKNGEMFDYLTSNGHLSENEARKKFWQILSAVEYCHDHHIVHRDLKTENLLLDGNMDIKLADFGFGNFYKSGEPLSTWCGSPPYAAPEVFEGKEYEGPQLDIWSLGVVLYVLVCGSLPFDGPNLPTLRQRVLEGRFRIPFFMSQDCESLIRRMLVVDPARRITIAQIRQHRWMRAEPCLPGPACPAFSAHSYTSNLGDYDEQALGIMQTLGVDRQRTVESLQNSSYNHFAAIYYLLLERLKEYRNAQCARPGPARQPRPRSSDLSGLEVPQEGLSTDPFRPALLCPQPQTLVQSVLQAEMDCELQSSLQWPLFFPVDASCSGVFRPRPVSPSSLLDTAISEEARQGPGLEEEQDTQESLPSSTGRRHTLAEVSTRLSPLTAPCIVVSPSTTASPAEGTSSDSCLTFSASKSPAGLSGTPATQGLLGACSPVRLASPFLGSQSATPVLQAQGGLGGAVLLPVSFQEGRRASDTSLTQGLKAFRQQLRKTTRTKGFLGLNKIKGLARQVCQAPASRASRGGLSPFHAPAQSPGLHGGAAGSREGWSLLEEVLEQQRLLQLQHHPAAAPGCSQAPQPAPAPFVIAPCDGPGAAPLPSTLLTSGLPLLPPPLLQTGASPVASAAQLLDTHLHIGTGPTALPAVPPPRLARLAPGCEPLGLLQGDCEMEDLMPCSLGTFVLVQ

SMILES: CCc1cccc(CC)c1N1CCn2cc(-c3nc(Nc4ccc(N5CCN(C(C)=O)CC5)cc4OC)nc4[nH]ncc34)cc2C1=O
- Activity [1]: < 10%
- half-life [2]: 35.2 min
- C0 at 24 h [3]: 5240 ng/mL
- remaining at 0 min [4]: 100%
- IC50 (MV4-11): 823 nM
- Activity [5]: < 10%
- AUC(0-inf) [6]: 208 ng·h/mL
- Activity [7]: < 10%
- Activity (ALK-KLC1 (Homo sapiens)): < 10%
- Activity [8]: < 10%
- Activity [9]: Non-Toxic
- Activity [10]: < 10%
- Activity [11]: < 10%
- Activity [12]: < 10%
- MRT last at 24 h [13]: 66.6 min
- Activity [14]: < 10%
- Activity [15]: < 10%
- Activity [16]: < 10%
- Activity [17]: < 10%
- Activity [18]: < 10%
- Activity [19]: < 10%
- clearance [20]: 32 mL/min/kg
- Activity [21]: < 10%
- IC50 (MDA-MB-468): 221 nM
- Cmax [22]: 160 ng/mL
- Activity [23]: < 10%
- Activity (ROS1-GOPC (Homo sapiens)): < 10%
- Activity [24]: < 10%
- Vd [25]: 0.672 L/kg
- half-life [26]: 49.5 min
- Activity [27]: < 10%
- Tmax [28]: 20 min
- Activity [29]: < 10%
- MRT inf [30]: 21.2 min
- remaining at 0.5 h [31]: 48.7%
- Tmax [32]: 4.98 min
